{"source": "paper PMC8786932", "about": "“Bicyclic azetidines target acute and chronic stages of Toxoplasma gondii by inhibiting parasite phenylalanyl t-RNA synthetase” (Nature Communications, 2022)", "key": {"[1]": {"tested_on": "T. gondii RHΔΔ TgPheRS[M484I] [V262A] double mutant", "assay": "Tachyzoite lytic assay, M484I_V262A double mutant", "format": "cell-based, Toxoplasma gondii", "conditions": "for EC50: Toxoplasma gondii", "description": "In vitro cultures of HFF cells containing mature vacuoles were scraped, passaged through 23 g blunt end needles, and filtered using 3 micron filters. Purified parasites were resuspended in 350 μL of cytomix plus[49] and combined in a BTX 4 mm gap cuvette with 30 μL of PCR amplified templates corresponding to mutations of interest and 10 μg of pSAG1:Cas9-GFP U6:sgTgPheRS^[mut] (in 20 μL, 400 μL total volume, see Supplementary Data 1 for sgRNA sequences) prior to electroporation using a BTX ETM 830 electroporator. Amplified templates for TgPheRS mutations were generated from gBlocks (Integrated DNA Technologies, Coralville, IA, USA) that contain a BclI restriction site that replaces the PAM sequence to protect the repair template from being cut by Cas9. At 16 h post-transfection, transgenic parasites expressing pSAG1:Cas9-GFP were sorted on a Sony SH800 FACS sorter directly into 96-well plates. Single clones containing TgPheRS^[mut] were identified by amplifying a ~500 bp PCR fragment around introduced mutation followed by digestion using BclI (New England Biolabs) BclI sensitive clones were expanded and the locus was Sanger sequenced to verify incorporation of each independent mutation. To generate firefly luciferase (FLuc) expressing strains, freshly harvested parasites were combined with 20 μg of pTUB-FLUC DHFR flox plasmid and 10 μg of pSAG1:Cas9-GFP U6:sgUPRT[50] (in 50 μL cytomix plus) and transformed by electroporation as described above. […]\nParasite growth on HFF monolayers was monitored using a 96-well plate-based lytic assay modified from a previously described protocol. […] Plates were rinsed with water, air dried, and absorption quantified on the Cytation 3 multi-mode imager at 570 nm wavelength. % parasite growth was calculated as 100−[(OD value for infected cultures at each concentration of compound/average OD value for no compound and no parasite infection) × 100]. EC50 values were calculated based on the mean of three biological replicates with each replicate containing two technical replicates."}, "in vivo": {"assay": "in vivo", "parameters": "species or system mouse; Plasma free: unit not given here", "conditions": "for Kp / Cmax / MRT / Tmax / AUC(0-t) / AUC(0-inf) / CL/F / half-life: female, CD1, mouse, in vivo; for Cmax / MRT / Tmax / AUC(0-t) / AUC(0-inf) / CL/F / half-life: po, 10 mg/kg/day; for Cmax / MRT / Tmax / AUC(0-t) / AUC(0-inf) / CL/F / half-life / Vd: mouse, 10 mg/kg/day p.o.; for AUC(0-t): read-out: AUC0–24", "description": "[…]. All mice were fed prior to dosing. After dosing, 200 uL of blood was collected at predetermined time points (pre, 1, 3, 7, 24 h). Blood samples were processed for plasma by centrifugation at approximately 4 °C, 4,500 g for 15 min within […]. Plasma samples were stored in polypropylene tubes, quick frozen over dry ice and kept at −70 ± 10 °C until LC/MS/MS analysis. Plasma concentration versus time data was analyzed by non-compartmental approaches using the Phoenix WinNonlin 6.3 software program. Brain tissue samples were taken at day 1, 4, and 8. Tissue samples were processed by centrifugation at approximately 10 °C, 17,000 g for 30 min within 30 min of collection."}, "TgPheRS[V262A]": {"target": "TgPheRS[V262A] (Toxoplasma gondii, UniProt A0A125YPN6, V262A)", "assay": "Enzyme assay, TgPheRS V262A", "format": "biochemical", "conditions": "Table S4, V262A; read-out: IC50 (enzyme inhibition)"}}, "note": "Read-outs that look alike come from different tables or passages of the source.", "data": [{"molecule": "COc1ccc(NC(=O)N2CCCCN3[C@H](CN(C)C)[C@H](c4ccc(C#Cc5ccccc5)cc4)[C@@H]3C2)cc1", "note": "[BRD7929]", "values": [{"measurement": "shift of EC50, double mutant", "setting": "[1]; M484I and V262A double mutant", "result": "only shifted the EC50 slightly more than every single mutation"}, {"measurement": "EC50", "setting": "[1]; 72 h, read-out: EC50, M484I_V262A", "result": 265, "unit": "nM"}, {"measurement": "EC50", "setting": "[1]; Table S4, V262A-M484I, read-out: EC50 (growth restriction)", "result": 234, "unit": "nM"}, {"measurement": "free concentration in plasma vs EC50", "setting": "in vivo; 10 mg/kg p.o. daily, 8 days, unbound", "result": "remained below the EC50 for most of the duration"}, {"measurement": "Plasma free", "setting": "in vivo; 10 mg/kg p.o. daily, mean, time 1:00:00", "result": 7.292}, {"measurement": "Brain free", "setting": "in vivo; 10 mg/kg p.o. daily, mean, time 24:00:00", "result": 24.8595}, {"measurement": "Kp", "setting": "in vivo; brain/plasma, Day 1, read-out: Kp (Cb/Cp)", "result": 169}, {"measurement": "Kp", "setting": "in vivo; brain/plasma, Day 4, read-out: Kp (Cb/Cp)", "result": 211}, {"measurement": "Kp", "setting": "in vivo; brain/plasma, Day 8, read-out: Kp (Cb/Cp)", "result": 577}, {"measurement": "Cmax", "setting": "in vivo; Day 1", "result": 153, "unit": "ng/mL"}, {"measurement": "MRT", "setting": "in vivo; Day 1", "result": 13.1, "unit": "h"}, {"measurement": "Tmax", "setting": "in vivo; Day 1", "result": 18.3, "unit": "h"}, {"measurement": "AUC(0-t)", "setting": "in vivo; Day 1", "result": 3190, "unit": "ng·h/mL"}, {"measurement": "AUC(0-inf)", "setting": "in vivo; Day 4", "result": 27700, "unit": "ng·h/mL"}, {"measurement": "CL/F", "setting": "in vivo; Day 4", "result": 7.1, "unit": "mL/min/kg"}, {"measurement": "Cmax", "setting": "in vivo; Day 4", "result": 330, "unit": "ng/mL"}, {"measurement": "MRT", "setting": "in vivo; Day 4", "result": 11.7, "unit": "h"}, {"measurement": "Tmax", "setting": "in vivo; Day 4", "result": 4.3, "unit": "h"}, {"measurement": "half-life", "setting": "in vivo; Day 4", "result": 64.6, "unit": "h"}, {"measurement": "AUC(0-t)", "setting": "in vivo; Day 4", "result": 6360, "unit": "ng·h/mL"}, {"measurement": "AUC(0-inf)", "setting": "in vivo; Day 8", "result": 20000, "unit": "ng·h/mL"}, {"measurement": "CL/F", "setting": "in vivo; Day 8", "result": 10, "unit": "mL/min/kg"}, {"measurement": "Cmax", "setting": "in vivo; Day 8", "result": 207, "unit": "ng/mL"}, {"measurement": "MRT", "setting": "in vivo; Day 8", "result": 12, "unit": "h"}, {"measurement": "Tmax", "setting": "in vivo; Day 8", "result": 5, "unit": "h"}, {"measurement": "half-life", "setting": "in vivo; Day 8", "result": 81.3, "unit": "h"}, {"measurement": "AUC(0-t)", "setting": "in vivo; Day 8", "result": 4390, "unit": "ng·h/mL"}, {"measurement": "Kp", "setting": "in vivo; unbound brain/plasma, Day 1, read-out: Kpu,u (Cb/Cp)", "result": 2.1}, {"measurement": "Kp", "setting": "in vivo; unbound brain/plasma, Day 4, read-out: Kpu,u (Cb/Cp)", "result": 2.6}, {"measurement": "Kp", "setting": "in vivo; unbound brain/plasma, Day 8, read-out: Kpu,u (Cb/Cp)", "result": 7.2}, {"measurement": "Kp", "setting": "in vivo; read-out: Kp u,u, concentration in brain vs. plasma", "result": "2 to 7"}, {"measurement": "Vd", "setting": "in vivo; Day 4", "result": 32, "unit": "L/kg"}, {"measurement": "Vd", "setting": "in vivo; Day 8", "result": 62, "unit": "L/kg"}, {"measurement": "Plasma free", "setting": "in vivo; time 3:00:00", "result": 9.26}, {"measurement": "Plasma free", "setting": "in vivo; time 7:00:00", "result": 10.41}, {"measurement": "Plasma free", "setting": "in vivo; time 24:00:00", "result": 11.33}, {"measurement": "Plasma free", "setting": "in vivo; time 72:00:00", "result": 12.09}, {"measurement": "Plasma free", "setting": "in vivo; time 73:00:00", "result": 19.13}, {"measurement": "Plasma free", "setting": "in vivo; time 75:00:00", "result": 25.02}, {"measurement": "Plasma free", "setting": "in vivo; time 79:00:00", "result": 22.5}, {"measurement": "Brain free", "setting": "in vivo; time 96:00:00", "result": 44.7005}, {"measurement": "Plasma free", "setting": "in vivo; time 96:00:00", "result": 17.52}, {"measurement": "Plasma free", "setting": "in vivo; time 168:00:00", "result": 12.4}, {"measurement": "Plasma free", "setting": "in vivo; time 169:00:00", "result": 14.08}, {"measurement": "Plasma free", "setting": "in vivo; time 171:00:00", "result": 14.92}, {"measurement": "Plasma free", "setting": "in vivo; time 175:00:00", "result": 15.38}, {"measurement": "Brain free", "setting": "in vivo; time 192:00:00", "result": 77.3745}, {"measurement": "Plasma free", "setting": "in vivo; time 192:00:00", "result": 12.86}, {"measurement": "IC50", "setting": "TgPheRS[V262A]", "result": 207, "unit": "nM"}]}]}
